The source of these data is patent US20100215618A1, “NOVEL COMPOUNDS - 644” (Arrow Therapeutics Limited, priority 2009, published 2010).

Molecules are shown by their SMILES. Read-outs that look alike come from different tables or passages of the source.

Test [1] has as its system HCV genotype 1a replicon cells Htat2ANeo. The experiment in a line: 1a Replicon Assay (cell-based anti-NS5a ELISA). Particulars: Hepatitis C virus, 72 h. As to the method: HCV genotype la replicon cells Htat2ANeo (University of Texas), containing neomycin phosphotransferase fusion protein and EMCV-IRES driven HCV polyprotein with cell culture adaptive mutations, and control cells, Et2AN.
Cells were cultured at 37° C./5% CO2 and split twice a week. G418 at 0.5 mg/ml and Blastocidin at 2 mg/ml were added to the culture medium but not the assay medium.
The culture medium consisted of DMEM with […] glucose and Glutamax (Gibco 61965-026) supplemented with 1× non-essential amino acids (Invitrogen 11140-035), 0.5 mg/ml G418 (Invitrogen 10131-027), 2 mg/ml Blastocidin (PAA) and 10% is Australian foetal calf serum (Invitrogen 10099-141).
Replicon and control cells were trypsinised and counted. Replicon cells were diluted to 90,000 cells/ml and 100 μl of this used to seed columns 2-4, […] and 10-12 of a black, clear bottom 96-well plate for every three compounds to be tested for IC50. Control cells were diluted to 60,000 cells/ml and 100 μl of this used to seed columns 1, 5 and 9 of the plate. Well H1 was left empty as the blank. Plates were then incubated at 37° C./5% CO2 for 24 h.
On the following day compound dilutions were prepared in medium at twice their desired final concentration in a clear round bottomed plate.
Controls and compounds were transferred from the dilution plate to the assay plates (containing the cells) at 100 μl/well in quadruplicate wells, one well containing control cells and 3 wells containing replicon cells.
Exception: no compound was added to row H of the plate and 100 μl of 1% DMSO was added to these instead. Plates were then incubated at 37° C. with 5% CO2 for 72 h. At the end of the incubation time, any reduction in cell viability was assayed and a cell-based enzyme linked immunosorbent assay (ELISA) was performed. The media/compound was removed from all wells and replaced with 100 μl/well serum-free media and 20 μl/well Cell Titre Blue (Promega G8081). Following incubation at 37° C./5% CO2 for 2 h plates were read on a microplate fluorometer (Molecular Devices) using an excitation of 570 nm and an emission of 590 nm The TD50, the concentration of drug required to reduce 50% of Cell Titre Blue relative to the DMSO controls, was calculated by plotting the fluorescence at 590 nm after substraction of background against drug concentration.
The media/Cell Titre Blue was removed and plates washed in PBS and gently tapped dry before addition of 50 μL per well of 75% acetone/25% methanol mixture for 3 minutes. The fixative was then discarded and wells were washed with PBS before addition of 100 μl/well of blocking solution (2% non-fat dry milk and 0.05% Tween-20 in 0.85% NaCl). Plates were then incubated at 37° C. in a shaking incubator for 60 min. Blocking solution was discarded and 50 μl of mouse anti-NS5a antibody (Virostat 1877) at 1:100 dilution in blocking buffer was added to all wells. Plates were incubated at 37° C. in a shaking incubator for 90 min Antibody was then discarded and plates were washed 4 times by immersion in 0.85% NaCl/0.05% Tween-20. After washing plates were tapped dry gently and 50 μl of secondary antibody (Dako P0260 Rabbit anti-mouse horseradish peroxidase) at 1:1000 dilution in blocking buffer was added to the wells. Plates were incubated at 37° C. in a shaking incubator for 60 min. Antibody was discarded and plates were washed 6 times by immersion in 0.85% NaCl/0.05% Tween-20 and once in PBS. Finally, 50 μl of substrate (SigmaFast ortho-phenylene diamine dihydrochloride (OPD)) was added per well and the colorimetric reaction was allowed to proceed in the dark for 5 to 15 minutes depending on the strength or the signal. The reaction was stopped by addition of 25 μl/well of 20% sulphuric acid. Plates were read on the SpectraMax microplate reader at 490 nm fixed wavelength. […]

The subject of test [2] is HCV replicon cells Huh 9B (genotype 1b). The test can be described thus: 1b Replicon Assay (luciferase readout). Type of test: cell-based. The note with it: Hepatitis C virus, Huh 9B replicon cells, 72 h, luciferase activity. As to the method:
HCV replicon cells Huh 9B (ReBlikon), containing the firefly luciferase-ubiquitin-neomycin phosphotransferase fusion protein and EMCV-IRES driven HCV polyprotein with cell culture adaptive mutations.
Cells were cultured at 37° C./5% CO2 and split twice a week. G418 at 0.5 mg/ml was added to the culture medium but not the assay medium.
The culture medium consisted of DMEM with […] glucose and Glutamax (Gibco 61965-026) supplemented with 1× non-essential amino acids (Invitrogen 11140-035), 0.5 mg/ml G418 (Invitrogen 10131-027) and 10% Australian foetal calf serum (Invitrogen 10099-141).
Replicon cells were trypsinised and counted. Cells were diluted to 100,000 cells/ml and 100 μl used to seed one opaque white 96-well plate (for the replicon assay) and one flat-bottomed clear plate (for the tox assay) for every five compounds to be tested for IC50. Wells G12 and H12 were left empty in the clear plate as the blank. Plates were then incubated at 37° C./5% CO2 for 24 h.
On the following day compound dilutions were prepared in medium at twice their desired final concentration in a clear round bottomed plate. All dilutions have a final DMSO concentration of 1%.
Controls and compounds were transferred from the dilution plates to the assay plates (containing the cells) at 100 μl/well in duplicate wells.
Exception: no compound was added to wells A1 and A2 of either plate and 100 μl of 1% DMSO was added to these instead. Plates were then incubated at 37° C./5% CO2 for 72 h.
At the end of the incubation time, the cells in the white plate were washed in PBS (100 μL per well) and dried by tapping before addition of 204 per well of lysis buffer (25 mM tris-phosphate, 8 mM MgCl2, 1 mM DTT, 1% Triton X-100, 15% glycerol; pH to 7.8 using KH2PO4 prior to Triton X-100 and glycerol addition). Aliquots of substrate (23.5 mM beetle luciferin (Promega E1603), 26 mM ATP (Sigma O-2060) in […] Tris buffer pH 7.8) were stored at −80° C. Prior to use, required amount of luciferin was thawed and diluted 1:50 in luciferase assay buffer (20 mM Tricine (Sigma T-0377), 1.07 mM magnesium carbonate hydroxide (Sigma M-5671), 0.1 mM EDTA (Sigma E-5134), 2.67 mM MgSO4(BDH 101514Y), 33.3 mM dithiothreitol (Sigma 150460) pH 7.8).
After 5-60 min incubation in lysis buffer at room temperature, a plate was inserted into the luminometer and 100 μl luciferase assay reagent was added by the injector of the luminometer. The signal was measured using a 1 second delay followed by a 4 second measurement programme. The IC50, the concentration of the drug required for reducing the replicon level by 50% in relation to the untreated cell control value, was calculated from the plot of the percentage reduction of the luciferase activity vs. drug concentration.
A general note: A replicon is a self-replicating genome or part of one, used to study replication in cells.

Where [3] appears, read: read-out: pIC50 1b Replicon (converted).

As to `CC(C)[C@H](N)C(=O)N1CCC[C@H]1c1ncc(-c2ccc(-c3ccc(C(=O)Nc4ccc(CN5CCS(=O)(=O)CC5)cc4)cc3)cc2)[nH]1` [Example 10, 4-[4-[2-[(2S)-1-[(2S)-2-amino-3-methyl-butanoyl]pyrrolidin-2-yl]-1H-imidazol-5-yl]phenyl]-N-[4-[(1,1-dioxo-1,4-thiazinan-4-yl)methyl]phenyl]benzamide], the IC50 in test [1] (read-out: HCV IC50 Elisa 1a) is 0.32 µM; in test [1] (read-out: pIC50 1a Replicon (converted)), 0.324 µM; in test [2] (read-out: HCV IC50 1b Replicon) it was 0.0652 µM; in test [2] (setting [3]), 0.0646 µM.

In the case of `COC(=O)N[C@H](C(=O)N1CCC[C@@H]1c1ncc(-c2ccc(-c3ccc(C(=O)Nc4ccc(CN5CCS(=O)(=O)CC5)cc4)cc3)cc2)[nH]1)c1ccccc1` [Example 23, Methyl N-[(1S)-2-[(2R)-2-[5-[4-[4-[[4-[(1,1-dioxo-1,4-thiazinan-4-yl)methyl]phenyl]carbamoyl]phenyl]phenyl]-1H-imidazol-2-yl]pyrrolidin-1-yl]-2-oxo-1-phenyl-ethyl]carbamate], the figures for the IC50 in test [2] (read-out: HCV IC50 1b Replicon) and in test [2] (setting [3]) were 0.109 µM and 0.11 µM, respectively.

With `COC(=O)N[C@@H](C(=O)N1CCC[C@@H]1c1ncc(-c2ccc(-c3ccc(C(=O)Nc4ccc(CN5CCS(=O)(=O)CC5)cc4)cc3)cc2)[nH]1)c1ccccc1` [Example 24, Methyl N-[(1R)-2-[(2R)-2-[5-[4-[4-[[4-[(1,1-dioxo-1,4-thiazinan-4-yl)methyl]phenyl]carbamoyl]phenyl]phenyl]-1H-imidazol-2-yl]pyrrolidin-1-yl]-2-oxo-1-phenyl-ethyl]carbamate], the IC50 in test [2] (read-out: HCV IC50 1b Replicon) is 0.101 µM; in test [2] (setting [3]), 0.102 µM.

For `CCN(CC)[C@@H](C(=O)N1CCC[C@@H]1c1ncc(-c2ccc(-c3ccc(C(=O)Nc4ccc(CN5CCS(=O)(=O)CC5)cc4)cc3)cc2)[nH]1)c1ccccc1` [Example 25, 4-[4-[2-[(2R)-1-[(2R)-2-(diethylamino)-2-phenyl-acetyl]pyrrolidin-2-yl]-1H-imidazol-5-yl]phenyl]-N-[4-[(1,1-dioxo-1,4-thiazinan-4-yl)methyl]phenyl]benzamide], the IC50 in test [2] (read-out: HCV IC50 1b Replicon) is 0.0779 µM; in test [2] (setting [3]), 0.0776 µM.

On to `CN(C)[C@@H](C(=O)N1CCC[C@@H]1c1ncc(-c2ccc(-c3ccc(C(=O)Nc4ccc(CN5CCS(=O)(=O)CC5)cc4)cc3)cc2)[nH]1)c1ccccc1` [Example 26, 4-[4-[2-[(2R)-1-[(2R)-2-(dimethylamino)-2-phenyl-acetyl]pyrrolidin-2-yl]-1H-imidazol-5-yl]phenyl]-N-[4-[(1,1-dioxo-1,4-thiazinan-4-yl)methyl]phenyl]benzamide], for which the figures for the IC50 in test [2] (read-out: HCV IC50 1b Replicon) and in test [2] (setting [3]) were 0.0557 µM and 0.0562 µM, respectively.

For `COC(=O)N[C@H](C(=O)N1CCC[C@H]1c1ncc(-c2cccc(-c3ccc(C(=O)Nc4ccc(CN5CCS(=O)(=O)CC5)cc4)cc3)c2)[nH]1)C(C)C` [Example 33, Methyl N-[(1S)-1-[(2S)-2-[5-[3-[4-[[4-[(1,1-dioxo-1,4-thiazinan-4-yl)methyl]phenyl]carbamoyl]phenyl]phenyl]-1H-imidazol-2-yl]pyrrolidine-1-carbonyl]-2-methyl-propyl]carbamate], the IC50 in test [2] (read-out: HCV IC50 1b Replicon) was 0.159 µM; in test [2] (setting [3]) it was 0.158 µM.

Consider `COC(=O)N[C@@H](C)C(=O)N1CCC[C@H]1c1ncc(-c2cccc(-c3ccc(C(=O)Nc4ccc(CN5CCS(=O)(=O)CC5)cc4)cc3)c2)[nH]1` [Example 34, Methyl N-[(1S)-2-[(2S)-2-[5-[3-[4-[[4-[(1,1-dioxo-1,4-thiazinan-4-yl)methyl]phenyl]carbamoyl]phenyl]phenyl]-1H-imidazol-2-yl]pyrrolidin-1-yl]-1-methyl-2-oxo-ethyl]carbamate], for which the IC50 in test [2] (read-out: HCV IC50 1b Replicon) was 0.252 µM; in test [2] (setting [3]), 0.251 µM.

As for `COC(=O)N[C@H](C(=O)N1CCC[C@H]1c1ncc(-c2cccc(-c3ccc(C(=O)Nc4ccc(CN5CCS(=O)(=O)CC5)cc4)cc3)c2)[nH]1)C(C)(C)C` [Example 35, Methyl N-[(1S)-1-[(2S)-2-[5-[3-[4-[[4-[(1,1-dioxo-1,4-thiazinan-4-yl)methyl]phenyl]carbamoyl]phenyl]phenyl]-1H-imidazol-2-yl]pyrrolidine-1-carbonyl]-2,2-dimethyl-propyl]carbamate], the IC50 in test [2] (read-out: HCV IC50 1b Replicon) and in test [2] (setting [3]) was 0.129 µM each time.

Turning to `COC(=O)N[C@H](C(=O)N1CCC[C@H]1c1ncc(-c2cccc(-c3ccc(C(=O)Nc4ccc(CN5CCS(=O)(=O)CC5)cc4)cc3)c2)[nH]1)c1ccccc1` [Example 36, Methyl N-[(1S)-2-[(2S)-2-[5-[3-[4-[[4-[(1,1-dioxo-1,4-thiazinan-4-yl)methyl]phenyl]carbamoyl]phenyl]phenyl]-1H-imidazol-2-yl]pyrrolidin-1-yl]-2-oxo-1-phenyl-ethyl]carbamate], the figures for the IC50 in test [2] (read-out: HCV IC50 1b Replicon) and in test [2] (setting [3]) were 0.0156 µM and 0.0155 µM, respectively.

For `COC(=O)N[C@@H](C(=O)N1CCC[C@H]1c1ncc(-c2cccc(-c3ccc(C(=O)Nc4ccc(CN5CCS(=O)(=O)CC5)cc4)cc3)c2)[nH]1)c1ccccc1` [Example 37, Methyl N-[(1R)-2-[(2S)-2-[5-[3-[4-[[4-[(1,1-dioxo-1,4-thiazinan-4-yl)methyl]phenyl]carbamoyl]phenyl]phenyl]-1H-imidazol-2-yl]pyrrolidin-1-yl]-2-oxo-1-phenyl-ethyl]carbamate], the figures for the IC50 in test [2] (read-out: HCV IC50 1b Replicon) and in test [2] (setting [3]) were 0.0215 µM and 0.0214 µM, respectively.
